The record followed here is patent US10640534B2 (Agios Pharmaceuticals, Inc., priority 2012, dated 2020).

For the test, the system named is U87MG cells. Briefly: Cellular assay, inhibition of 2-HG production in U87MG cells. The format is cell-based. Conditions: Homo sapiens, U-87 MG, 48 h. Summed up:
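HT1080 or U87MG cells (U87MG kept with 500 ug/mL G418) seeded at 5000 cells/well and treated with compound at 0.2% final DMSO. Incubated 48 h at 37 °C. 2-HG inhibition determined by LC-MS. Viability read by CellTiter-Glo luminescence at 72 h post-dose.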

SMILES strings stand for the structures.

Regarding `N#Cc1ccnc(N2C(=O)CC[C@H]2C(=O)N(c2cncc(F)c2)[C@H](C(=O)NC2CC(F)(F)C2)c2ccccc2F)c1` [Compound 148, (S)-1-(4-Cyanopyridin-2-yl)-N—((S)-2-((3,3-difluorocyclobutyl)amino)-1-(2-fluorophenyl)-2-oxoethyl)-N-(5-fluoropyridin-3-yl)-5-oxopyrrolidine-2-carboxamide], the IC50 was < 100 nM. Turning to `O=C(NC1CC(F)(F)C1)[C@H](c1ccccc1Cl)N(C(=O)[C@@H]1CCC(=O)N1c1ncccn1)c1cc(F)cc(F)c1` [Compound 70, (S)—N—((S)-1-(2-Chlorophenyl)-2-((3,3-difluorocyclobutyl)amino)-2-oxoethyl)-N-(3,5-difluoro-phenyl)-5-oxo-1-(pyrimidin-2-yl)pyrrolidine-2-carboxamide], the IC50 is < 100 nM.

In the case of `N#Cc1ccnc(N2C(=O)[C@H](O)C[C@H]2C(=O)N(c2cccc(F)c2)[C@H](C(=O)NC2CC(F)(F)C2)c2ccccc2Cl)n1` [Compound 120, (2S,4R)—N—((S)-1-(2-Chlorophenyl)-2-((3,3-difluorocyclobutyl)amino)-2-oxoethyl)-1-(4-cyanopyrimidin-2-yl)-N-(3-fluorophenyl)-4-hydroxy-5-oxopyrrolidine-2-carboxamide], the IC50 lay within 100 to 500 nM.

In the case of `N#Cc1ccnc(N2C(=O)NC[C@H]2C(=O)N(c2cccc(F)c2)[C@H](C(=O)NC2CC(F)(F)C2)c2ccccc2Cl)c1` [Compound 80, (S)—N—((S)-1-(2-chlorophenyl)-2-(3,3-difluorocyclobutylamino)-2-oxoethyl)-3-(4-cyanopyridin-2-yl)-N-(3-fluorophenyl)-2-oxoimidazolidine-4-carboxamide], the IC50 was < 100 nM. `N#Cc1ccnc(N2C(=O)[C@H](O)C[C@H]2C(=O)N(c2cc(F)cc(F)c2)[C@@H](C(=O)NC2CC(F)(F)C2)c2ccccc2Cl)n1` [Compound 116, (2S,4R)—N—((R)-1-(2-Chlorophenyl)-2-((3,3-difluorocyclobutyl)amino)-2-oxoethyl)-1-(4-cyanopyrimidin-2-yl)-N-(3,5-difluorophenyl)-4-hydroxy-5-oxopyrrolidine-2-carboxamide] had an IC50 of 100 to 500 nM. Take `CC(C)(O)c1cccc(N(C(=O)[C@@H]2CCC(=O)N2c2cc(C#N)ccn2)[C@H](C(=O)NC2CC(F)(F)C2)c2ccccc2Cl)c1` [Compound 179, (S)—N—((S)-1-(2C)-2-((3,3-difluorocyclobutyl)amino)-2-oxoethyl)-1-(4-cyanopyridin-2-yl)-N-(3-(2-hydroxypropan-2-yl)phenyl)-5-oxopyrrolidine-2-carboxamide]: the IC50 is < 100 nM. The value for `N#Cc1cccc(N(C(=O)[C@@H]2CCC(=O)N2c2cc(C#N)ccn2)[C@H](C(=O)NC2CC(F)(F)C2)c2ccccc2Cl)c1` [Compound 128, (S)—N—((S)-1-(2-Chlorophenyl)-2-((3,3-difluorocyclobutyl)amino)-2-oxoethyl)-N-(3-cyano-phenyl)-1-(4-cyanopyridin-2-yl)-5-oxopyrrolidine-2-carboxamide] was < 100 nM; that for `O=C(NC1CC(F)(F)C1)[C@H](c1ccccc1Cl)N(C(=O)[C@@H]1COCC(=O)N1c1ncccn1)c1cccc(F)c1` [Compound 30, (S)—N—((S)-1-(2-chlorophenyl)-2-((3,3-difluorocyclobutyl)amino)-2-oxoethyl)-N-(3-fluorophenyl)-5-oxo-4-(pyrimidin-2-yl)morpholine-3-carboxamide] was 100 to 500 nM.

For the compound `N#Cc1cc(F)cc(N(C(=O)[C@@H]2CCC(=O)N2c2cc(C#N)ccn2)[C@H](C(=O)NC2CC(F)(F)C2)c2ccccc2Cl)c1` [Compound 177, (S)—N—((S)-1-(2-Chlorophenyl)-2-(3,3-difluorocyclobutylamino)-2-oxoethyl)-N-(3-cyano-5-fluorophenyl)-1-(4-cyanopyridin-2-yl)-5-oxopyrrolidine-2-carboxamide], the IC50 was < 100 nM. The compound `O=C(NC1CC(F)(F)C1)C(c1ccccc1Cl)N(C(=O)[C@@H]1CCC(=O)N1c1ccccc1)c1cccc(F)c1` (stereo partly drawn) [Compound 23] showed an IC50 of 100 to 500 nM. On to `N#Cc1ccnc(N2C(=O)CC[C@H]2C(=O)N(c2cc(F)cc(F)c2)[C@H](C(=O)NC2CC(F)(F)C2)c2ccccc2Cl)c1` [Compound 71, (S)—N—((S)-1-(2-Chlorophenyl)-2-((3,3-difluorocyclobutyl)amino)-2-oxoethyl)-1-(4-cyanopyridin-2-yl)-N-(3,5-difluorophenyl)-5-oxopyrrolidine-2-carboxamide], for which the IC50 is < 100 nM.

For `N#Cc1cc(C#N)cc(N(C(=O)[C@@H]2CCC(=O)N2c2cc(C#N)ccn2)[C@H](C(=O)NC2CC(F)(F)C2)c2ccccc2Cl)c1` [Compound 153, (S)—N—((S)-1-(2-Chlorophenyl)-2-((3,3-difluorocyclobutyl)amino)-2-oxoethyl)-1-(4-cyanopyridin-2-yl)-N-(3,5-dicyanophenyl)-5-oxopyrrolidine-2-carboxamide], the IC50 is < 100 nM. The value for `N#Cc1cccc(N(C(=O)[C@@H]2CCC(=O)N2c2nccc(C#N)n2)[C@H](C(=O)NC2CC(F)(F)C2)c2ccccc2Cl)c1` [Compound 167, (S)—N—((S)-1-(2-Chlorophenyl)-2-((3,3-difluorocyclobutyl)amino)-2-oxoethyl)-N-(3-cyanophenyl)-1-(4-cyanopyrimidin-2-yl)-5-oxopyrrolidine-2-carboxamide] was < 100 nM.

Regarding `COc1cccc(N(C(=O)[C@@H]2CCC(=O)N2c2cc(C#N)ccn2)[C@H](C(=O)NC2CC(F)(F)C2)c2ccccc2Cl)c1` [Compound 129, (S)—N—((S)-1-(2C)-2-((3,3-difluorocyclobutyl)amino)-2-oxoethyl)-1-(4-cyanopyridin-2-yl)-N-(3-methoxyphenyl)-5-oxopyrrolidine-2-carboxamide], the IC50 was < 100 nM. For `N#Cc1ccnc(N2C(=O)CC[C@H]2C(=O)N(c2ccc3[nH]ncc3c2)[C@H](C(=O)NC2CC(F)(F)C2)c2ccccc2Cl)c1` [Compound 175, (S)—N—((S)-1-(2-Chlorophenyl)-2-((3,3-difluorocyclobutyl)amino)-2-oxoethyl)-1-(4-cyanopyridin-2-yl)-N-(1H-indazol-5-yl)-5-oxopyrrolidine-2-carboxamide], the concentration for half-maximal inhibition (IC50) is < 100 nM. As to `N#Cc1ccnc(N2C(=O)[C@H](O)C[C@H]2C(=O)N(c2cc(F)cc(F)c2)[C@H](C(=O)NC2CC(F)(F)C2)c2ccccc2Cl)c1` [Compound 115, (2S,4R)—N—((S)-1-(2-Chlorophenyl)-2-((3,3-difluorocyclobutyl)amino)-2-oxoethyl)-1-(4-cyanopyridin-2-yl)-N-(3,5-difluorophenyl)-4-hydroxy-5-oxopyrrolidine-2-carboxamide], the IC50 was < 100 nM. Turning to `N#Cc1ccnc(N2C(=O)CCC[C@H]2C(=O)N(c2cccc(F)c2)[C@H](C(=O)NC2CCC(F)(F)CC2)c2ccccc2Cl)c1` [Compound 75, (S)—N—((S)-1-(2-Chlorophenyl)-2-((4,4-difluorocyclohexyl)amino)-2-oxoethyl)-1-(4-cyano-pyridin-2-yl)-N-(3-fluorophenyl)-6-oxopiperidine-2-carboxamide], the IC50 is < 100 nM. Turning to `N#Cc1ccnc(N2C(=O)CC[C@H]2C(=O)N(c2cc(F)cc(F)c2)[C@H](C(=O)NC2CCC(F)(F)CC2)c2ccccc2Cl)n1` [Compound 87, (S)—N—((S)-1-(2-Chlorophenyl)-2-((4,4-difluorocyclohexyl)amino)-2-oxoethyl)-1-(4-cyanopyrimidin-2-yl)-N-(3,5-difluorophenyl)-5-oxopyrrolidine-2-carboxamide], the IC50 is < 100 nM.
